These results are taken from paper PMC9015904 (ChemMedChem, 2022).

The structures appear in SMILES notation. Marks after values point to notes of the source that are not given here.

Data set [1] concerns the target T1, hKOR (Homo sapiens, UniProt P41145). Put plainly: biochemical. In kind it is biochemical.
Data set [2] deals with T2, hMOR (Homo sapiens, UniProt P35372). Description: GTPγS functional assay, MOR. In kind it is biochemical.
Data set [3] concerns the target T1, hKOR. Description: biochemical. The data set is classed as binding.
Data set [4] concerns the target T2, hMOR. Put plainly: biochemical. The data set is classed as binding.
In data set [5] the target is T3, hDOR (Homo sapiens, UniProt P41143). Put plainly: Competitive radioligand binding assay, DOR.
T3 sequence (P41143 whole entry): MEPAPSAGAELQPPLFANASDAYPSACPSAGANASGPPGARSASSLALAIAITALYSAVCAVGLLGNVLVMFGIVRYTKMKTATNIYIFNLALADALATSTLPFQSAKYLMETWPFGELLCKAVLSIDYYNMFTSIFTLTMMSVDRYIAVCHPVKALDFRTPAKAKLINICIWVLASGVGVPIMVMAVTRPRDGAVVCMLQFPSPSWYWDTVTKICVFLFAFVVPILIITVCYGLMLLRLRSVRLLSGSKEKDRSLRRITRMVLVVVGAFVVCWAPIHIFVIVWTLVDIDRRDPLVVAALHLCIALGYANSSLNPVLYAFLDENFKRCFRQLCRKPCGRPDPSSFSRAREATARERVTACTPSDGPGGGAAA
Data set [6] relates to male C57BL/6NHsd mice. Conditions: mouse, in vivo.
The subject of data set [7] is male C57BL/6NHsd mice. Particulars: mouse, in vivo. This is another data set of the same source.
Data set [8] relates to male C57BL/6NHsd mice. Particulars: mouse, in vivo. The source holds these as a separate data set.
Data set [9] addresses T3, hDOR. Put plainly: GTPγS functional assay, DOR. The data set is classed as biochemical.

Usually EC50 stands for the concentration at which the effect is half-maximal. A lower EC50 goes with greater potency. What is called Kd is a measure of binding affinity in units of concentration. Low readings indicate tighter binding, high ones weaker binding.

T1 sequence (P41145 whole entry): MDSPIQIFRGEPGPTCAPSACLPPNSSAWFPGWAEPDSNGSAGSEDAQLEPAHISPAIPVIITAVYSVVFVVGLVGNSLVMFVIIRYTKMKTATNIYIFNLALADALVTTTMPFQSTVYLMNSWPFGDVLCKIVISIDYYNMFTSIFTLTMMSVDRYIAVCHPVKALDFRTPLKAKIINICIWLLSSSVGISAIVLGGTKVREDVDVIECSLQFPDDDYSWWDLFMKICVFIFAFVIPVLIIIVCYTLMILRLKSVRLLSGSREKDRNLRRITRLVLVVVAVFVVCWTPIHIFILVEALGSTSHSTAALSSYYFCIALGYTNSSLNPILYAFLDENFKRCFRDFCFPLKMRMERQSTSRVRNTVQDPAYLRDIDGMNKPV
T2 sequence (P35372 whole entry): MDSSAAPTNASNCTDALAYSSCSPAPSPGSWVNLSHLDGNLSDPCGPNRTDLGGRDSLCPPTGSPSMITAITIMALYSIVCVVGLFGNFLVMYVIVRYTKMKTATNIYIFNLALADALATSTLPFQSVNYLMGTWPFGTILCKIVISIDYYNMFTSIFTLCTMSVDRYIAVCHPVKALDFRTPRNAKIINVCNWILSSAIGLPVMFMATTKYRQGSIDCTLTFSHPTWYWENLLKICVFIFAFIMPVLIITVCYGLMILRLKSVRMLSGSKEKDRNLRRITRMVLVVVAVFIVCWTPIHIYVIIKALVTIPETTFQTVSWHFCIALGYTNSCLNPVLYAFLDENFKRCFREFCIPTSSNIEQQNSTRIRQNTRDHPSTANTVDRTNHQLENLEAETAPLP

Consider `COC(=O)[C@@H]1C[C@H](OC(=O)C2=CCc3ccccc32)C(=O)[C@H]2[C@@]1(C)CC[C@H]1C(=O)O[C@H](c3ccoc3)C[C@]21C` [Compound 1, Methyl-(2S,4aR,6aR,7R,9S,10aS,10bR)-9-((1H-indene-3-carbonyl)oxy)-2-(furan-3-yl)-6a,10b-dimethyl-4,10-dioxododecahydro-2H-benzo[f]isochromene-7-carboxylate], for which the EC50 was 1570 nM at hKOR [1] and greater than 10000 nM on hMOR [2]. Moreover, the “Full or partial agonist (KOR)” value on hKOR [1] was 1570 (548–4500)^[c]. Moreover, the Kd on hKOR [3] stood at 62.3 nM; at hMOR [4], 531 nM.

Regarding `COC(=O)[C@@H]1C[C@H](OC(=O)C2Cc3ccccc3C2)C(=O)[C@H]2[C@@]1(C)CC[C@H]1C(=O)O[C@H](c3ccoc3)C[C@]21C` [Compound 3, Methyl-(2S,4aR,6aR,7R,9S,10aS,10bR)-9-((2,3-dihydro-1H-indene-2-carbonyl)oxy)-2-(furan-3-yl)-6a,10b-dimethyl-4,10-dioxododecahydro-2H-benzo[f]isochromene-7-carboxylate], the EC50 on hKOR [1] is 3000 nM; on hMOR [2], greater than 10000 nM. Further, the “Full or partial agonist (KOR)” value on hKOR [1] was 3000 (409–22000)^[d]. The dissociation constant Kd at hKOR [3] stood at 1270 nM; at hMOR [4], 3020 nM.

For the compound `COC(=O)[C@@H]1C[C@H](OC(=O)c2nc3ccccc3o2)C(=O)[C@H]2[C@@]1(C)CC[C@H]1C(=O)O[C@H](c3ccoc3)C[C@]21C` [Compound 4, (2S,4aR,6aR,7R,9S,10aS,10bR)-2-(furan-3-yl)-7-(methoxycarbonyl)-6a,10b-dimethyl-4,10-dioxododecahydro-2H-benzo[f]isochromen-9-yl benzo[d]oxazole-2-carboxylate], the “binding affinity towards DOR, in words” value on hDOR [5] is given as “exhibited no affinity to any of the opioid receptors”. For the same compound, the “binding affinity towards KOR, in words” value at hKOR [3] is “exhibited no affinity to any of the opioid receptors”. Besides, on hMOR [4], the “binding affinity towards MOR, in words” value was “exhibited no affinity to any of the opioid receptors”.

`COC(=O)[C@@H]1C[C@H](OC(=O)c2n[nH]c3ccccc23)C(=O)[C@H]2[C@@]1(C)CC[C@H]1C(=O)O[C@H](c3ccoc3)C[C@]21C` [Compound 5, (2S,4aR,6aR,7R,9S,10aS,10bR)-2-(furan-3-yl)-7-(methoxycarbonyl)-6a,10b-dimethyl-4,10-dioxododecahydro-2H-benzo[f]isochromen-9-yl 1H-indazole-3-carboxylate]: on hMOR [2], the EC50 is greater than 10000 nM. In addition, the dissociation constant Kd on hMOR [4] turned out to be 208 nM.

`COC(=O)[C@@H]1C[C@H](OC(=O)c2nc3ccccc3[nH]2)C(=O)[C@H]2[C@@]1(C)CC[C@H]1C(=O)O[C@H](c3ccoc3)C[C@]21C` [Compound 6, (2S,4aR,6aR,7R,9S,10aS,10bR)-2-(furan-3-yl)-7-(methoxycarbonyl)-6a,10b-dimethyl-4,10-dioxododecahydro-2H-benzo[f]isochromen-9-yl 1H-benzo[d]imidazole-2-carboxylate] registered an EC50 on hMOR [2] greater than 10000 nM. In addition, at hMOR [4], the Kd stood at 83.2 nM and the “binding affinity towards MOR, in words” value was “exhibited selective affinity towards MOR”.

Take `COC(=O)[C@@H]1C[C@H](OC(=O)c2cc3c(F)cccc3[nH]2)C(=O)[C@H]2[C@@]1(C)CC[C@H]1C(=O)O[C@H](c3ccoc3)C[C@]21C` [Compound 7, (2S,4aR,6aR,7R,9S,10aS,10bR)-2-(furan-3-yl)-7-(methoxycarbonyl)-6a,10b-dimethyl-4,10-dioxododecahydro-2H-benzo[f]isochromen-9-yl 4-fluoro-1H-indole-2-carboxylate]: the EC50 was 877 nM on hKOR [1] and 211 nM on hMOR [2]. Besides, the “Full or partial agonist (KOR)” value on hKOR [1] was 877 (564–1360)^[d]. Besides, the results for the Kd at hKOR [3] and on hMOR [4] were 57.3 nM and 13.1 nM, respectively.

In the case of `COC(=O)[C@@H]1C[C@H](OC(=O)c2cc3cc(F)ccc3[nH]2)C(=O)[C@H]2[C@@]1(C)CC[C@H]1C(=O)O[C@H](c3ccoc3)C[C@]21C` [Compound 8, (2S,4aR,6aR,7R,9S,10aS,10bR)-2-(furan-3-yl)-7-(methoxycarbonyl)-6a,10b-dimethyl-4,10-dioxododecahydro-2H-benzo[f]isochromen-9-yl 5-fluoro-1H-indole-2-carboxylate], at hKOR [1], a half-maximal effect (EC50) was put at 1110 nM and the “Full or partial agonist (KOR)” value is 1110 (441–2790)^[c]. The compound further returned a Kd on hKOR [3] of 97.8 nM. The “binding affinity towards MOR, in words” value on hMOR [4] is listed as “loss of binding affinity to MOR”.

For the compound `COC(=O)[C@@H]1C[C@H](OC(=O)c2cc3ccc(F)cc3[nH]2)C(=O)[C@H]2[C@@]1(C)CC[C@H]1C(=O)O[C@H](c3ccoc3)C[C@]21C` [Compound 9, (2S,4aR,6aR,7R,9S,10aS,10bR)-2-(furan-3-yl)-7-(methoxycarbonyl)-6a,10b-dimethyl-4,10-dioxododecahydro-2H-benzo[f]isochromen-9-yl 6-fluoro-1H-indole-2-carboxylate], the EC50 on hKOR [1] came out at 419 nM; on hMOR [2] it was 973 nM. In addition, the “Full or partial agonist (KOR)” value at hKOR [1] is 419 (240–729)^[c]. Besides, the Kd was 17 nM at hKOR [3] and 39.7 nM at hMOR [4].

As for `COC(=O)[C@@H]1C[C@H](OC(=O)c2cc3cccc(F)c3[nH]2)C(=O)[C@H]2[C@@]1(C)CC[C@H]1C(=O)O[C@H](c3ccoc3)C[C@]21C` [Compound 10, (2S,4aR,6aR,7R,9S,10aS,10bR)-2-(furan-3-yl)-7-(methoxycarbonyl)-6a,10b-dimethyl-4,10-dioxododecahydro-2H-benzo[f]isochromen-9-yl 7-fluoro-1H-indole-2-carboxylate], the “latency to hind paw lick or flutter compared to vehicle” value with male C57BL/6NHsd mice [6] is “Neither salivinorin A, herkinorin, nor compound 10 were observed to significantly influence the latency to paw response”. Further, at hKOR [1], the midpoint of the response, the EC50, lay at 36.5 nM; the “Full or partial agonist (KOR)” value was 36.5 (13.6–98.2)^[d]; the “fold higher potency at KOR (vs MOR)” value is ~ 4 fold. Also, the EC50 at hMOR [2] came out at 132 nM. Moreover, in the data set on male C57BL/6NHsd mice [7], the “distance traveled in the maze compared to vehicle” value is “reduction in the total distance traveled” and the “time spent in the open arms compared to vehicle” value is reported as “Neither herkinorin nor compound 10 significantly influenced anxiety-like behavior”. Also, on hKOR [3], the Kd amounted to 53.8 nM; the “fold preference towards KOR (binding affinity, KOR vs MOR)” value is “equal binding affinity towards KOR and MOR”. Besides, the Kd on hMOR [4] came to 58.4 nM. In addition, in the data set on male C57BL/6NHsd mice [8], the “latency to tail withdrawal compared to vehicle” value is recorded as “Neither salvinorin A, herkinorin, nor compounds 2 or 10 demonstrated significant antinociception”.

For `COC(=O)[C@@H]1C[C@H](OC(=O)c2nc3ccccc3s2)C(=O)[C@H]2[C@@]1(C)CC[C@H]1C(=O)O[C@H](c3ccoc3)C[C@]21C` [Compound 11, (2S,4aR,6aR,7R,9S,10aS,10bR)-2-(furan-3-yl)-7-(methoxycarbonyl)-6a,10b-dimethyl-4,10-dioxododecahydro-2H-benzo[f]isochromen-9-yl benzo[d]thiazole-2-carboxylate], at hKOR [1], the midpoint of the response, the EC50, lay at 294 nM and the “Full or partial agonist (KOR)” value was 294 (179–482)^[d]. Moreover, on hKOR [3], binding was characterised by a dissociation constant (Kd) of 91.7 nM and the “binding affinity towards KOR, in words” value is “exhibited selective affinity towards KOR”.

As to `COC(=O)[C@@H]1C[C@H](OC(=O)c2cc3ccccn3c2)C(=O)[C@H]2[C@@]1(C)CC[C@H]1C(=O)O[C@H](c3ccoc3)C[C@]21C` [Compound 12, (2S,4aR,6aR,7R,9S,10aS,10bR)-2-(furan-3-yl)-7-(methoxycarbonyl)-6a,10b-dimethyl-4,10-dioxododecahydro-2H-benzo[f]isochromen-9-yl indolizine-2-carboxylate], the EC50 at hKOR [1] was found to be 1560 nM; on hMOR [2], 200 nM; on hDOR [9], 742 nM. Moreover, at hKOR [1], the “Full or partial agonist (KOR)” value was 1560 (213–11500)^[c]. Besides, the dissociation constant Kd was 480 nM on hDOR [5], 18.4 nM at hKOR [3] and 1390 nM at hMOR [4].

As for `COC(=O)[C@@H]1C[C@H](OC(=O)[C@H]2Cc3ccccc3N2)C(=O)[C@H]2[C@@]1(C)CC[C@H]1C(=O)O[C@H](c3ccoc3)C[C@]21C` [Compound 13, (2S,4aR,6aR,7R,9S,10aS,10bR)-2-(furan-3-yl)-7-(methoxycarbonyl)-6a,10b-dimethyl-4,10-dioxododecahydro-2H-benzo[f]isochromen-9-yl (R)-indoline-2-carboxylate], at hKOR [1], a half-maximal effect (EC50) was put at 2260 nM and the “Full or partial agonist (KOR)” value was 2260 (1360–3760)^[c]. Further, a half-maximal response at hMOR [2] (EC50) required 840 nM. Moreover, at hKOR [3], the equilibrium dissociation constant (Kd) is 130 nM. For the same compound, at hMOR [4], the affinity, expressed as Kd, was 9.04 nM and the “fold preference towards MOR (binding affinity, MOR vs KOR)” value worked out at 14 fold.

With `COC(=O)[C@@H]1C[C@H](OC(=O)[C@@H]2Cc3ccccc3N2)C(=O)[C@H]2[C@@]1(C)CC[C@H]1C(=O)O[C@H](c3ccoc3)C[C@]21C` [Compound 14, (2S,4aR,6aR,7R,9S,10aS,10bR)-2-(furan-3-yl)-7-(methoxycarbonyl)-6a,10b-dimethyl-4,10-dioxododecahydro-2H-benzo[f]isochromen-9-yl (S)-indoline-2-carboxylate], at hKOR [1], a half-maximal response (EC50) required 361 nM and the “Full or partial agonist (KOR)” value was 361 (216–602)^[d]. The compound further showed an EC50 on hMOR [2] greater than 10000 nM. Also, at hKOR [3], binding was characterised by a dissociation constant (Kd) of 32.1 nM and the “fold preference towards KOR (binding affinity, KOR vs MOR)” value is given as ~ 2 fold. On hMOR [4], this compound yielded a dissociation constant (Kd) of 77.9 nM.

`CN1CC[C@]23c4c5ccc(O)c4O[C@H]2[C@@H](O)C=C[C@H]3[C@H]1C5` [Morphine, reference compound]: in the data set with male C57BL/6NHsd mice [6], the “latency to hind paw lick or flutter compared to vehicle” value is “significant increase in the latency to paw response”. Also, the “latency to tail withdrawal compared to vehicle” value with male C57BL/6NHsd mice [8] was “significantly increased the latency to tail withdrawal”.
